In patent publication US10800752B2, “Substituted naphtho[2,3-b]furans as water-soluble prodrugs for preventing and/or treating cancer” (BOSTON BIOMEDICAL, INC., priority 2015, dated 2020):
Like-named read-outs stand apart in the source and are kept apart here.

Type: in vivo, CD1 (ICR) mice
Conditions: for Plasma Compound Concentration: Activated form 1 in plasma, 232.5 mg/kg (p.o.)
Description: It was then centrifuged to obtain plasma.

Compound: COC(=O)[C@@H](N)CCNC(=O)Oc1c2ccccc2c(OC(=O)NCC[C@H](N)C(=O)OC)c2oc(C(C)=O)cc12.Cl.Cl [Example 11]
- Plasma Compound Concentration (0.25 hr, animal 1): 18.86 µM
- Plasma Compound Concentration (0.25 hr, animal 2): 19.65 µM
- Plasma Compound Concentration (0.25 hr, animal 3): 25.31 µM
- Plasma Compound Concentration (0.25 hr, mean): 21.27 µM
- Plasma Compound Concentration (0.5 hr, animal 1): 17.48 µM
- Plasma Compound Concentration (0.5 hr, animal 2): 11.45 µM
- Plasma Compound Concentration (0.5 hr, animal 3): 17.11 µM
- Plasma Compound Concentration (0.5 hr, mean): 15.35 µM
- Plasma Compound Concentration (1.0 hr, animal 1): 10.87 µM
- Plasma Compound Concentration (1.0 hr, animal 2): 18.98 µM
- Plasma Compound Concentration (1.0 hr, animal 3): 15.93 µM
- Plasma Compound Concentration (1.0 hr, mean): 15.26 µM
- Plasma Compound Concentration (2.0 hr, animal 1): 13.53 µM
- Plasma Compound Concentration (2.0 hr, animal 2): 6.62 µM
- Plasma Compound Concentration (2.0 hr, animal 3): 13.57 µM
- Plasma Compound Concentration (2.0 hr, mean): 11.24 µM
- Plasma Compound Concentration (4.0 hr, animal 1): 6.12 µM
- Plasma Compound Concentration (4.0 hr, animal 2): 3.73 µM
- Plasma Compound Concentration (4.0 hr, animal 3): 11.49 µM
- Plasma Compound Concentration (4.0 hr, mean): 7.11 µM
- Plasma Compound Concentration (6.0 hr, animal 1): 2.37 µM
- Plasma Compound Concentration (6.0 hr, animal 2): 0.60 µM
- Plasma Compound Concentration (6.0 hr, animal 3): 0.75 µM
- Plasma Compound Concentration (6.0 hr, mean): 1.24 µM
- Plasma Compound Concentration (24.0 hr, animal 3): 0.04 µM
- Plasma Compound Concentration (24.0 hr, mean): 0.01 µM
- concentration of 2-acetylnaphtho[2,3-b]furan-4,9-dione (Activated form 1) observed (in words) (orally administered to mice): high concentration
